Assay results: patent publication EP2286808A1, “Cytohesin inhibitors” (Rheinische Friedrich-Wilhelms Universität, priority 2009, dated 2011)

What was measured:
[1] = biological target: T1, sec7-domains of cytohesin-2 (ARNO) (Homo sapiens, UniProt Q99418); test: guanine nucleotide exchange assay (GDP/GTP exchange on [Δ17]ARF1, tryptophan fluorescence); type: biochemical; details: for IC50: 250 nM [Δ17]ARF1, 10 nM ARNO-Sec7, 50 µM GTP, PBS pH 7.4, 37°C, read-out: IC50 value measured for the isolated Sec-7 domain of cytohesin-2; for inhibition of the sec7-domain of the isolated cytohesin-2 (relative exchange rate): 5µM amide compared with 5µM control SecinH3 (K), whose rate is set to 1, Fig. 1; for dual activity in cell adhesion and nucleotide exchange assays (summary in words): across nucleotide exchange and cell adhesion assays
T1 construct: ARNO-Sec7 (amino acids 50-255 of ARNO) were expressed in Escherichia coli; inferred from pET15 vector and Ni-NTA purification; made in house; host or cells: Escherichia coli
T1 sequence (Q99418 50-255): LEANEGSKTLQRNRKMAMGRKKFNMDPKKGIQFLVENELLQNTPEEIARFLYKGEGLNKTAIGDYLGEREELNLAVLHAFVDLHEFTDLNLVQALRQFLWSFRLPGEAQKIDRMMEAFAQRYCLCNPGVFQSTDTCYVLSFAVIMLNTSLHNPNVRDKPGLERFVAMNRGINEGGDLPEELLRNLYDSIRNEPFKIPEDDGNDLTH
Experimental: The inhibition of the exchange activity of the sec7-domains of cytohesin-2 (ARNO) of the amides according to formulas (5) to (30) was determined by a guanine nucleotide exchange assay.
For this purpose, the sec7-domains of cytohesin-2 (ARNO-Sec7) and [Δ17]ARF1, a mutant of the ADP-ribosylation factor (ARF) protein, were subcloned into pET15 vectors (Novagen) as described in Hafner, M. et al. Nature 444, 941-944 (2006). N-terminal truncated [Δ17]ARF1 (amino acids 18-181), lacking the first 17 amino acids and ARNO-Sec7 (amino acids 50-255 of ARNO) were expressed in Escherichia coli and purified by Ni-NTA chromatography (Ni-NTA agarose, Qiagen).
The exchange from […] (GDP) to guanidine-triphosphate (GTP) induces a conformation change of the ribosylation factor, as a result of which the fluorescence of a tryptophan radical of the protein is increased. GDP/GTP exchange was measured on [Δ17][…] by tryptophan fluorescence because a large increase in intrinsic fluorescence of ARF occurs upon exchange of GDP for GTP. All measurements were performed in PBS (137 mM NaCl, 2.7 mM KCl, 10.2 mM Na2HPO4, 1.8 mM KH2PO4) pH 7.4, 3 mM MgCl2 at 37°C.
[Δ17]ARF1 (1 µM) in PBS without MgCl2 was preincubated with 80 µM GDP in the presence of 2 mM ethylenediaminetetraacetic acid (EDTA) for 15 minutes. The bound GDP was stabilized by addition of MgCl2 at a final concentration of 3 mM and incubation for 5 minutes. For each exchange reaction 250 nM [Δ17]ARF1 was mixed with 10 nM ARNO-Sec7 (total volume 200 µl) in the absence or presence of inhibitoring amides according to formulas (5) to (30). The reaction was started by injection of 50 µM GTP.
The tryptophan fluorescence was measured at excitation and emission wavelength of 280 nm and 340 nm respectively. All fluorescent measurements were performed with a Varioskan microplate reader (Thermo Scientific), in 96-well plates. For analysis all data were fitted by linear regression.
The pan-active cytohesin inhibitor "SecinH3", a 1-, 2-, 4-substituted triazole according to formula (9) as disclosed in DE 10 2004 055 998 served as the control (K). The relative exchange rate of the control SecinH3 (K) was set to be 1.
The relative exchange rate was determined by comparing the initial linear rise of the fluorescence signal (exchange rate) in the presence of 5µM of the amides according to formulas (5) to (30) with the exchange rate in the presence of 5µM control SecinH3 (K), whereas the latter was set to be 1.
Further, the IC50 value inhibition of the sec7-domain of the isolated cytohesin-2 was determined. The IC50 value was be determined by plotting the initial linear rise of the fluorescence signal against the added concentrations of the amide. The IC50 value corresponds to the concentration of the amide at which the activity of the protein is reduced to half.

[2] = tested on: Drosophila insulin signaling (d4E-BP mRNA levels in Drosophila S2 cells); test: Drosophila insulin signaling assay, d4E-BP mRNA by quantitative RT-PCR; type: cell-based; details: 5 µg/ml insulin; for d4E-BP transcript levels: 10 µM amide for 18 hours, control SecinH3 (K) set to 1, Fig. 2
Experimental: In order to evaluate potential interference of the amides according to formulas (5) to (30) with Drosophila insulin signaling, S2 (Schneider 2 insect cell line, Invitrogen) cells were grown under starvation conditions and subsequently treated with insulin. This triggers a strong activation of the insulin signaling cascade resulting in the nuclear exclusion of the forkhead-box transcription factor dFOXO, which in turn down-regulates the expression of the transcriptional repressor d4E-BP (eIF4E-binding protein). […] This was measured by quantitative RT-PCR and compared to the effect of the control SecinH3 (K) in the same assay.
0.5 x 10^6 S2 cells were grown in 24-well dishes in medium (Schneiders Drosophila Medium, PAN Biotech) without FCS (heat-inactivated fetal calf serum) representing starvation condition. Six hours after seeding cells were treated for 18 hours with 10 µM of the respective amide according to formulas (5) to (30) or 10 µM SecinH3 (K) as reference. 22 hours after seeding cells were treated with 5 µg/ml insulin (Sigma). Controls were performed without amide and/or without insulin treatment. The amides were dissolved in dimethyl sulfoxide (DMSO). Final DMSO concentration in the cell culture medium was 0.5 %.
NucleoSpin 8 RNA Kit (Macherey-Nagel) was used for RNA preparation according to manufacturer's instructions. Genomic DNA digestion and first strand cDNA synthesis was carried out with 250 ng total RNA using QuantiTect Reverse Transkription Kit (Qiagen). Quantitative PCR was performed with the iQ5 Real-Time PCR detection system (Bio-Rad) and iQ SYBR Green Super Mix (Bio-Rad). Three reactions were done in parallel for each template. Real Time PCR was analysed using Bio-Rad iQ5 Optical System Software and Microsoft Excel.
The d4E-BP mRNA level after treatment of cells with the amides according to formulas (5) to (30) compared to the control SecinH3 is shown in Fig. 2. The d4E-BP mRNA level after treatment of cells with the control SecinH3 (K) was set to be 1.

[3] = tested on: adhesion of the T cell line Jurkat E6 to an immobilized ICAM-1-Fc-fusion protein; test: cell adhesion assay, Jurkat E6 cells to immobilized ICAM-1-Fc-fusion protein; type: cell-based, human; details: 25 µM amide, OKT3 or PMA stimulation; 100% adhesion = 25 µM control SecinH3 (K); Fig. 3
Experimental: The ability of the amides according to formulas (5) to (30) to inhibit adhesion of the T cell line Jurkat E6 to an immobilized ICAM-1(Inter-Cellular Adhesion Molecule 1)-Fc-fusion protein was tested. On the T cell side, this interaction is exclusively mediated by the β-2 integrin LFA-1 that was enabled to bind to immobilized ICAM-1 through stimulation of Jurkat cells with an anti-TCR (T cell receptor) antibody or with the phorbol ester PMA (Phorbol 12-myristate 13-acetate). Cell adhesion to ICAM-Fc was carried out on 96-well dishes and was read out by fluorescence detection of total input versus bound cells which had been labeled with the DNA dye H33342.
Jurkat E6.1 cells were incubated in HBSS (Hank's BSS, PAA), 0.5% DMSO and, where indicated, 25 µM of the respective amide for one hour at 37°C, 5% CO2. After 30 minutes the cells were labeled with the fluorochrome bisbenzimide trihydrochloride H33342 (Sigma-Aldrich) at […] for 30 minutes at 37°C. 2 x 10^5 cells/ well were subsequently dispensed into a 96-well plate at 100µl/well. Prior to use plates were coated with 12µg/ml goat anti-human IgG for 90 minutes at 21°C, blocked with 1% BSA (Bovine serum albumin) in PBS overnight and incubated for 60 minutes with culture supernatants from CV-1 cells expressing an ICAM-1-Fc fusion protein.
Cells were either stimulated with 5 µg/ml purified anti CD3 antibody (OKT3, hybridome of ATCC, mAb OKT3 purified on protein A, according to standard methods from Current Protocols in Immunology, 5th Ed., Coligan et al., Edts, Wiley 2004) or with 50 ng/ml PMA, respectively. Cells were allowed to adhere to the ICAM-1-Fc coated dishes for 15 minutes and unbound cells were washed off with Hank's BSS (PAA). Adherent cells were read out using a fluorescence plate reader (Synergy-HT1, Biotek) at 485 nm in triplicates.
"100% adhesion" corresponds to the mean of OKT3 and PMA stimulated samples treated with 25 µM control control Secin H3 (K) as reference.

| dual activity in cell adhesion and nucleotide exchange assays (summary in words) [1] | SMILES | IC50 [1] | dose-response behaviour of inhibition in nucleotide exchange assay [1] | potency in nucleotide exchange assay (summary in words) [1] | inhibition of the sec7-domain of the isolated cytohesin-2 (relative exchange rate) [1] | d4E-BP transcript levels [2] | increase in dFOXO-dependent d4E-BP transcript levels compared to the reference (K) ([2]; 10 µM amide) | inhibition of the adhesion of the Jurkat E6.1 cells to ICAM-1 [3] |
| --- | --- | --- | --- | --- | --- | --- | --- | --- |
|  | COc1nc(-c2ccc3c(c2)OCO3)n(-c2ccc(NC(=O)CSc3ccccc3)cc2)n1 [SecinH3, reference compound] | 11.4 µM |  |  |  |  |  |  |
|  | CC(C)(C)c1ccc(C(=O)Nc2ccc(NC(=O)/C=C/c3ccco3)cc2)cc1 [formula (5)] | 3.1 µM | displayed a dose-response behaviour | potent inhibitors | better than that of the control SecinH3 (K) | increased | ~20 fold | better than that of the control (K) |
|  | CC(C)(C)c1ccc(C(=O)Nc2ccc(NC(=S)NC(=O)c3cccs3)cc2)cc1 [formula (6)] | 8 µM |  | potent inhibitors | better than that of the control SecinH3 (K) | increased |  | better than that of the control (K) |
|  | COc1nc(-c2ccc(C)cc2)n(-c2ccc(NC(=O)/C=C/c3ccccc3)cc2)n1 [formula (7)] |  |  |  | better than that of the control SecinH3 (K) |  |  |  |
| dual activity | COc1ccc(-n2c(SCCC(=O)NC(N)=O)nnc2-c2ccc(C(C)(C)C)cc2)cc1Cl [formula (11)] |  |  |  | better than that of the control SecinH3 (K) |  |  | better than that of the control (K) |
| dual activity | CC(C)(C)c1ccc(C(=O)Nc2ccc(NC(=O)c3ccc4c(c3)OCO4)cc2)cc1 [formula (29)] |  |  |  |  |  |  | better than that of the control (K) |

| SMILES | dual activity in cell adhesion and nucleotide exchange assays (summary in words) [1] | IC50 [1] | dose-response behaviour of inhibition in nucleotide exchange assay [1] | potency in nucleotide exchange assay (summary in words) [1] | inhibition of the sec7-domain of the isolated cytohesin-2 (relative exchange rate) [1] | d4E-BP transcript levels [2] | increase in dFOXO-dependent d4E-BP transcript levels compared to the reference (K) ([2]; 10 µM amide) | inhibition of the adhesion of the Jurkat E6.1 cells to ICAM-1 [3] |
| --- | --- | --- | --- | --- | --- | --- | --- | --- |
| C=CCn1c(SCC(=O)Nc2nsc(-c3ccccc3)n2)nc2scc(-c3ccccc3)c2c1=O [formula (20)] | dual activity | 2.1 µM | displayed a dose-response behaviour | potent inhibitors |  | increased |  |  |
